Data: patent US20260130901A1, “CGRP RECEPTOR ANTAGONIST FOR THE TREATMENT OF MIGRAINE” (ALLERGAN PHARMACEUTICALS INTERNATIONAL LIMITED, priority 2022, published 2026)

Tested on: participants with migraine (qualifying prodrome events)
Assay: Phase 3 crossover study: absence of prodrome symptoms over time
Format: in vivo, human
Conditions: 100 mg in prodrome; for Absence of dizziness, Nonresponder (%) / Absence of dizziness, Odds ratio vs. placebo / Absence of dizziness, Responder (%) / Absence of fatigue, Nonresponder (%) / Absence of fatigue, Odds ratio vs. placebo / Absence of fatigue, Responder (%) / Absence of neck pain, Nonresponder (%) / Absence of neck pain, Odds ratio vs. placebo / Absence of neck pain, Responder (%) / Absence of sensitivity to light, Nonresponder (%) / Absence of sensitivity to light, Odds ratio vs. placebo / Absence of sensitivity to light, Responder (%) / Absence of sensitivity to sound, Nonresponder (%) / Absence of sensitivity to sound, Odds ratio vs. placebo / Absence of sensitivity to sound, Responder (%): participants with symptom at predose
Procedure: A phase 3, multicenter, randomized, double-blind, placebo-controlled, crossover study was carried out to evaluate the efficacy, safety, and tolerability of oral ubrogepant in the acute treatment of migraine when administered during the prodrome. The study evaluated whether treatment during the initial phase of a migraine attack (i.e., the prodrome or premonitory phase) prior to the onset of headache, can attenuate the severity of the headache phase and reduce disability.
Eligible participants were randomized (1:1) to treatment sequences A or B in this crossover study. Participants randomized to Treatment Sequence A received placebo to treat their first qualifying prodrome event and ubrogepant 100 mg to treat their second qualifying prodrome event. For those randomized to Treatment Sequence B, they received the reverse: ubrogepant 100 mg to treat their first qualifying prodrome event and placebo to treat their second qualifying prodrome event.
N1 is the number of participants with the prodrome symptom at predose. N2 is the number of participants with non-missing prodrome symptom intensity assessment by timepoint after dose. The proportion of events with absence of sensitivity to light after ubrogepant 100 mg was numerically greater than after placebo, starting at 2 hours post-dose and extending through 48 hours (nominal P≤0.0109 for hours 2-8).
N1 is the number of participants with the prodrome symptom at predose. N2 is the number of participants with non-missing prodrome symptom intensity assessment by timepoint after dose. The difference in response rates was nominally significant for the ubrogepant 100 mg dose group compared with placebo as early as 3 hours post-dose administered during the prodrome.
N1 is the number of participants with the prodrome symptom at predose. N2 is the number of participants with non-missing prodrome symptom intensity assessment by timepoint after dose.

## C[C@@H]1[C@H](c2ccccc2)C[C@H](NC(=O)c2cnc3c(c2)C[C@@]2(C3)C(=O)Nc3ncccc32)C(=O)N1CC(F)(F)F [Ubrogepant, (3′S)—N-((3S,5S,6R)-6-methyl-2-oxo-5-phenyl-1-(2,2,2-trifluoroethyl)piperidin-3-yl)-2′-oxo-1′,2′,5,7-tetrahydrospiro[cyclopenta[b]pyridine-6,3′-pyrrolo[2,3-b]pyridine]-3-carboxamide]
  Response rates vs placebo, absence of dizziness: Numerically higher response rates
  Response rates vs placebo, absence of sensitivity to sound: Numerically higher response rates
1 Hour post dose
  Absence of dizziness, Nonresponder (%): (90.0) %
  Absence of dizziness, Odds ratio vs. placebo: 0.96
  Absence of dizziness, Responder (%): (10.0) %
  Absence of fatigue, Nonresponder (%): (95.1) %
  Absence of fatigue, Odds ratio vs. placebo: 1.23
  Absence of fatigue, Responder (%): (4.9) %
  Absence of neck pain, Nonresponder (%): (95.8) %
  Absence of neck pain, Odds ratio vs. placebo: 1.43
  Absence of neck pain, Responder (%): (4.2) %
  Absence of sensitivity to light, Nonresponder (%): (95.2) %
  Absence of sensitivity to light, Odds ratio vs. placebo: 1.08
  Absence of sensitivity to light, Responder (%): (4.8) %
  Absence of sensitivity to sound, Nonresponder (%): (92.0) %
  Absence of sensitivity to sound, Odds ratio vs. placebo: 1.23
  Absence of sensitivity to sound, Responder (%): (8.0) %
2 Hours post dose
  Absence of dizziness, Nonresponder (%): (70.7) %
  Absence of dizziness, Odds ratio vs. placebo: 1.17
  Absence of dizziness, Responder (%): (29.3) %
  Absence of fatigue, Nonresponder (%): (81.6) %
  Absence of fatigue, Odds ratio vs. placebo: 1.43
  Absence of fatigue, Responder (%): (18.4) %
  Absence of neck pain, Nonresponder (%): (84.6) %
  Absence of neck pain, Odds ratio vs. placebo: 1.39
  Absence of neck pain, Responder (%): (15.4) %
  Absence of sensitivity to light, Nonresponder (%): (80.5) %
  Absence of sensitivity to light, Odds ratio vs. placebo: 1.72
  Absence of sensitivity to light, Responder (%): (19.5) %
  Absence of sensitivity to sound, Nonresponder (%): (74.7) %
  Absence of sensitivity to sound, Odds ratio vs. placebo: 1.59
  Absence of sensitivity to sound, Responder (%): (25.3) %
3 Hours post dose
  Absence of dizziness, Nonresponder (%): (60.7) %
  Absence of dizziness, Odds ratio vs. placebo: 1.60
  Absence of dizziness, Responder (%): (39.3) %
  Absence of fatigue, Nonresponder (%): (72.7) %
  Absence of fatigue, Odds ratio vs. placebo: 1.85
  Absence of fatigue, Responder (%): (27.3) %
  Absence of neck pain, Nonresponder (%): (71.1) %
  Absence of neck pain, Odds ratio vs. placebo: 2.04
  Absence of neck pain, Responder (%): (28.9) %
  Absence of sensitivity to light, Nonresponder (%): (67.6) %
  Absence of sensitivity to light, Odds ratio vs. placebo: 1.58
  Absence of sensitivity to light, Responder (%): (32.4) %
  Absence of sensitivity to sound, Nonresponder (%): (64.4) %
  Absence of sensitivity to sound, Odds ratio vs. placebo: 1.45
  Absence of sensitivity to sound, Responder (%): (35.6) %
4 Hours post dose
  Absence of dizziness, Nonresponder (%): (50.0%
  Absence of dizziness, Odds ratio vs. placebo: 1.37
  Absence of dizziness, Responder (%): (50.0) %
  Absence of fatigue, Nonresponder (%): (65.2) %
  Absence of fatigue, Odds ratio vs. placebo: 1.93
  Absence of fatigue, Responder (%): (34.8) %
  Absence of neck pain, Nonresponder (%): (61.3) %
  Absence of neck pain, Odds ratio vs. placebo: 2.27
  Absence of neck pain, Responder (%): (38.7) %
  Absence of sensitivity to light, Nonresponder (%): (55.2) %
  Absence of sensitivity to light, Odds ratio vs. placebo: 1.46
  Absence of sensitivity to light, Responder (%): (44.8) %
  Absence of sensitivity to sound, Nonresponder (%): (49.3) %
  Absence of sensitivity to sound, Odds ratio vs. placebo: 1.97
  Absence of sensitivity to sound, Responder (%): (50.7) %
6 Hours post dose
  Absence of dizziness, Nonresponder (%): (37.8) %
  Absence of dizziness, Odds ratio vs. placebo: 1.45
  Absence of dizziness, Responder (%): (62.2) %
  Absence of fatigue, Nonresponder (%): (56.3) %
  Absence of fatigue, Odds ratio vs. placebo: 1.46
  Absence of fatigue, Responder (%): (43.7) %
  Absence of neck pain, Nonresponder (%): (52.0) %
  Absence of neck pain, Odds ratio vs. placebo: 1.68
  Absence of neck pain, Responder (%): (48.0) %
  Absence of sensitivity to light, Nonresponder (%): (42.1) %
  Absence of sensitivity to light, Odds ratio vs. placebo: 1.75
  Absence of sensitivity to light, Responder (%): (57.9) %
  Absence of sensitivity to sound, Nonresponder (%): (43.3) %
  Absence of sensitivity to sound, Odds ratio vs. placebo: 1.44
  Absence of sensitivity to sound, Responder (%): (56.7) %
8 Hours post dose
  Absence of dizziness, Nonresponder (%): (27.9) %
  Absence of dizziness, Odds ratio vs. placebo: 1.33
  Absence of dizziness, Responder (%): (72.1) %
  Absence of fatigue, Nonresponder (%): (46.1) %
  Absence of fatigue, Odds ratio vs. placebo: 1.87
  Absence of fatigue, Responder (%): (53.9) %
  Absence of neck pain, Nonresponder (%): (49.7) %
  Absence of neck pain, Odds ratio vs. placebo: 1.40
  Absence of neck pain, Responder (%): (50.3) %
  Absence of sensitivity to light, Nonresponder (%): (28.9) %
  Absence of sensitivity to light, Odds ratio vs. placebo: 2.40
  Absence of sensitivity to light, Responder (%): (71.1) %
  Absence of sensitivity to sound, Nonresponder (%): (33.8) %
  Absence of sensitivity to sound, Odds ratio vs. placebo: 1.75
  Absence of sensitivity to sound, Responder (%): (66.2) %
24 Hours post dose
  Absence of dizziness, Nonresponder (%): (11.5) %
  Absence of dizziness, Odds ratio vs. placebo: 1.82
  Absence of dizziness, Responder (%): (88.5) %
  Absence of fatigue, Nonresponder (%): (31.4) %
  Absence of fatigue, Odds ratio vs. placebo: 1.19
  Absence of fatigue, Responder (%): (68.6) %
  Absence of neck pain, Nonresponder (%): (28.6) %
  Absence of neck pain, Odds ratio vs. placebo: 1.42
  Absence of neck pain, Responder (%): (71.4) %
  Absence of sensitivity to light, Nonresponder (%): (18.1) %
  Absence of sensitivity to light, Odds ratio vs. placebo: 1.37
  Absence of sensitivity to light, Responder (%): (81.9) %
  Absence of sensitivity to sound, Nonresponder (%): (16.9) %
  Absence of sensitivity to sound, Odds ratio vs. placebo: 1.38
  Absence of sensitivity to sound, Responder (%): (83.1) %
48 Hours post dose
  Absence of dizziness, Nonresponder (%): (10.5) %
  Absence of dizziness, Odds ratio vs. placebo: 1.66
  Absence of dizziness, Responder (%): (89.5) %
  Absence of fatigue, Nonresponder (%): (22.9) %
  Absence of fatigue, Odds ratio vs. placebo: 1.22
  Absence of fatigue, Responder (%): (77.1) %
  Absence of neck pain, Nonresponder (%): (22.2) %
  Absence of neck pain, Odds ratio vs. placebo: 1.01
  Absence of neck pain, Responder (%): (77.8) %
  Absence of sensitivity to light, Nonresponder (%): (11.8) %
  Absence of sensitivity to light, Odds ratio vs. placebo: 1.52
  Absence of sensitivity to light, Responder (%): (88.2) %
  Absence of sensitivity to sound, Nonresponder (%): (11.7) %
  Absence of sensitivity to sound, Odds ratio vs. placebo: 0.93
  Absence of sensitivity to sound, Responder (%): (88.3) %
mITT
  Effect on the most commonly reported prodrome symptoms compared with placebo: ameliorated the most commonly reported prodrome symptoms
post-dose
  Earliest time at which difference in response rates vs placebo was nominally significant, absence of fatigue: 3 h
  Earliest time at which difference in response rates vs placebo was nominally significant, absence of neck pain: 3 h
